Source: patent US7955815B2, “Two-photon fluorescent probes for acidic vesicles in live cells and tissue and method of imaging acidic vesicles in live cells and tissue using the same” (Korea University Industrial & Academic Collaboration …, priority 2007, dated 2011)
≈ marks a conversion by molar mass, not a printed value.

Key:
[1] = Water solubility from fluorescence intensity vs probe concentration; format: physicochemical; details: kinetic from dmso stock, H2O, 0.2% DMSO, read-out: solubility (maximum concentration in the linear region)
Description: Each of the probes AH1, AH2 and AL1 prepared in Examples 1-3 was dissolved in DMSO to prepare a stock solution (1.0×10^−3 M). The solution was diluted to […] and added to a cuvette containing 3.0 mL of H2O by using a micro syringe. In all cases, the concentration of DMSO in H2O was maintained to be 0.2%. The fluorescence intensity of the probe was measured as a function of the probe concentration.
Referring to FIG. 1, the fluorescence intensities of the probes increased in all wavelength bands with increasing probe concentration.
The plots (1b, 1d and 1f) have a profile in which the fluorescence intensity increases with increasing probe concentration.
Referring to the profile, the fluorescence intensity increases linearly until the dye concentration reaches a predetermined level. […] The maximum concentration in the linear region was taken as the solubility. The solubilities of the probes AH1, AH2, and AL1 were 5.0, 9.0, and 5.0 μM, respectively.

[2] = Fluorescence as a function of pH in universal buffer; pKa value analysis; format: physicochemical; details: for fluorescence intensity change with pH: pH gradually decreased; for pKa: universal buffer solution, from fluorescence intensity as a function of pH
Description: Each of the probes AH1 and AH2 was dissolved in a universal buffer solution (0.1 M citric acid, 0.1 M KH2PO4, 0.1 M Na2B4O7, 0.1 M Tris, 0.1 M KCl 10 mM).
The fluorescence intensities of the probes AH1 and AH2 were measured, and titration curves thereof were plotted (FIG. 9). In FIG. 9, Y-axis represents the fluorescence intensity enhancement factor [(F−Fo)/Fo] (F is the fluorescence intensity and Fo is the minimum fluorescence intensity).
The pKa values were estimated from the fluorescence intensity measured as a function of the pH by using the relationship 1: log [(Imax−I)/(I−Imin)]=pH−pKa (1)
wherein I represents the fluorescence intensity, and Imax and Imin represent the maximum and minimum fluorescence intensity, respectively.

[3] = Two-photon action cross section by fs fluorescence measurement, fluorescein as reference; format: physicochemical; details: 780 nm
Description: The two-photon cross section (δ) was determined by using femto second (fs) fluorescence measurement technique.
Specifically, each of the probes AH1, AH2, AL1 and LYSOTRACKER™ Red (DND-99) was dissolved in a universal buffer (pH=3.2) at a concentration of 5.0×10^−6 M and then the two-photon induced fluorescence intensity was measured at 740-940 nm by using fluorescein (8.0×10^−6 M, pH=11) as the reference, whose two-photon property has been well characterized.
The intensities of the two-photon induced fluorescence spectra of the reference and the sample probe were measured, and the two-photon cross section of the sample probe was calculated according to Equation 2: […]
wherein the subscripts s and r represent the sample probe and the reference, respectively, δ represents the two-photon cross section of the sample probe, and S represents the intensity of the signal collected by a detector, Φ represents the fluorescence quantum yield, φ represents the overall fluorescence collection efficiency of the experimental apparatus, c represents the number density of the molecules in solution, and δr represents the two-photon cross section of the reference.
The two-photon action cross section of the sample probe was calculated by multiplying the two-photon cross section by the quantum yield.

[4] = test system: acidic vesicles in macrophages; experiment: Two-photon microscopy images of labeled macrophages, co-localized with LysoTracker Red OPM image; format: cell-based; details: TPM
Excerpt: TPM images of individual macrophages labeled with the probe AH2 of Example 2 were obtained (FIG. 3).
In contrast, the TPM images of the AH2-labeled macrophages emitted TPEF only at 500-620 nm (3b), and not at 360-460 nm (3a), which was attributed to the membrane-bound probe.
To unambiguously determine whether the intense red spots (3b) are indeed the acidic vesicles, the macrophages were stained With LYSOTRACKER™ Red (LTR), a well known one-photon fluorescent probe, and a one-photon micrography (OPM) image thereof was obtained (3c). The TPM image was co-localized with the OPM image (3d).
Acidic vesicles were imaged in the same manner as in Experimental Example 3-(1), except that the probe AH1 of Example 1 was used instead of the probe AH2 of Example 2.
Acidic vesicles were imaged in the same manner as in Experimental Example 3-(1), except that the probe AL1 of Example 3 was used instead of the probe AH2 of Example 2.

[5] = test system: acidic vesicles in hippocampal slices; experiment: TPEF imaging of rat hippocampal slices
Description: Slices were prepared from the hippocampi of a 2-day-old rat. The hippocampal slices were cut into a thickness of 400 μm. The slices were incubated with the probes AH2 and AL1 (10-20 μM).
The slices were then washed and transferred to glass-bottomed dishes. The TPEF images of the slices were obtained.
40 TPM images were accumulated along the z-direction at the depth of ˜100-250 μm with magnification 10× (6b).

| Structure (SMILES) | solubility [1] | fluorescence intensity change with pH [2] | pKa [2] | two-photon action cross section relative to LysoTracker Red [3] | imaging of acidic vesicles in macrophages (TPEF at 500-620 nm, merged with LTR image) [4] | depth at which TPEF images were obtained ([5]; 400 μm hippocampal slices of 2-day-old rat, probe 10-20 μM) | imaging of transportation of acidic vesicles ([5]; acute rat hippocampal slice, CA3 region, depth ~120 μm, 10 μM) | two-photon action cross section (Φδ) ([3]; universal buffer pH 3.2, 5.0×10^−6 M) |
| --- | --- | --- | --- | --- | --- | --- | --- | --- |
| CC(=O)c1ccc2cc(N(C)CC(=O)Nc3ccc(N)cc3)ccc2c1 [AH1] | 5 µM (≈ 1.74 µg/mL) | increased dramatically around pH 4-5 | 4.42 ± 0.03 | 9 fold | clearly capable of imaging the acidic vesicles |  |  |  |
| COc1cc(NC(=O)CN(C)c2ccc3cc(C(C)=O)ccc3c2)ccc1N [AH2] | 9 µM (≈ 3.4 µg/mL) | increased dramatically around pH 4-5 | 4.18 ± 0.01 | 9 fold | clearly capable of imaging the acidic vesicles | 250 μm |  |  |
| CC(=O)c1ccc2cc(N(C)CC(=O)NCCN(C)C)ccc2c1 [AL1] | 5 µM (≈ 1.64 µg/mL) | maintained at a substantially constant level despite changes in acidity |  |  | clearly capable of imaging the acidic vesicles |  | can visualize the transportation of acidic vesicles in the CA3 region for a long period of time |  |
| CN(C)CCNC(=O)CCc1ccc2n1[B-](F)(F)[N+]1=C(c3ccc[nH]3)C=CC1=C2 [LYSOTRACKER™ Red (LTR), reference compound] |  |  |  |  |  |  |  | ~10 GM |
